This experiment addresses T1, human somatostatin receptor subtype 5 (Homo sapiens, UniProt P35346).
T1 construct: expressed in transfected cells
Description: cAMP assay for SST5R (inhibition of cAMP in CHO-K1 cells). Particulars: Table A; inhibition of cAMP via human SST5 receptor; read-out: SST5 potency. Format: cell-based. Summed up:
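CHO-K1 cells stably expressing human SSTR5 were treated 20 min at 37 °C with compounds plus 1.6 μM NKH477 in HBSS, 0.5 mM HEPES pH 7.4, 0.1% BSA, 0.2 mM IBMX. Lysate cAMP measured by HTRF against a standard curve; EC50 from cAMP-versus-concentration plots.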
(In general: cAMP levels reflect the balance of adenylyl cyclase and phosphodiesterase activity.)

Structures are written as SMILES. A value given as a limit tells only on which side of the number the result lay.

Among the data in patent US12600709B2, “Nonpeptide somatostatin type 5 receptor agonists and uses thereof” (Crinetics Pharmaceuticals, Inc., priority 2019, dated 2026) are EC50 values, retold here.

T1 sequence (P35346 whole entry): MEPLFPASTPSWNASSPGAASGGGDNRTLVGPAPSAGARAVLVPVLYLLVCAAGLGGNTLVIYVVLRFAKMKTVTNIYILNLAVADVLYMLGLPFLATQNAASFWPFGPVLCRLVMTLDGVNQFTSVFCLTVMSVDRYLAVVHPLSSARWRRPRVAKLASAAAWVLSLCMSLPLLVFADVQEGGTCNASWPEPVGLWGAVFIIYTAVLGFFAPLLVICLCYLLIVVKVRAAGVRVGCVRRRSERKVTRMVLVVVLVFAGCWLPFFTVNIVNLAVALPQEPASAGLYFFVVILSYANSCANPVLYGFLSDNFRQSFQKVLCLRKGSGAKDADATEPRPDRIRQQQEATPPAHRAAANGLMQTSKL

For `C[C@]1(N)CCN(c2c(C(=O)NC3CCCOC3)cnc(C#N)c2-c2cc(F)cc(F)c2)C1` (stereo partly drawn) [1-89, 4-[(3S)-3-amino-3-methylpyrrolidin-1-yl]-6-cyano-5-(3,5-difluorophenyl)-N-(oxan-3-yl)pyridine-3-carboxamide], the EC50 was < 0.01 µM.

With `C[C@H](NC(=O)c1cncc(-c2cncc(F)c2)c1N1CC[C@](C)(N)C1)C1CC1` [1-142, 4-[(3S)-3-amino-3-methylpyrrolidin-1-yl]-N-[(1S)-1-cyclopropylethyl]-5′-fluoro-[3,3′-bipyridine]-5-carboxamide], the EC50 was < 0.01 µM.

Take `C[C@]1(N)CCN(c2c(C(=O)NC3CCOCC3)cnc(C#N)c2-c2cc(F)cc(F)c2)C1` [1-88, 4-[(3S)-3-amino-3-methylpyrrolidin-1-yl]-6-cyano-5-(3,5-difluorophenyl)-N-(oxan-4-yl)pyridine-3-carboxamide]: the EC50 was < 0.01 µM.

In the case of `COc1ncc(C(=O)NC(C2CC2)C(F)(F)F)c(N2CC[C@H](N)C2)c1-c1cc(F)cc(F)c1` (stereo partly drawn) [1-194, 4-[(3S)-3-aminopyrrolidin-1-yl]-N-(1-cyclopropyl-2,2,2-trifluoroethyl)-5-(3,5-difluorophenyl)-6-methoxypyridine-3-carboxamide], the EC50 was < 0.01 µM.

Take `Cc1cccc2[nH]c(-c3cncc(C(=O)N4CCCC4(C)C)c3N3CC[C@](C)(N)C3)nc12` [2-20, (3S)-1-[3-(2,2-dimethylpyrrolidine-1-carbonyl)-5-(4-methyl-1H-1,3-benzodiazol-2-yl)pyridin-4-yl]-3-methylpyrrolidin-3-amine]: the EC50 was < 0.01 µM.

Consider `Cc1cccc2[nH]c(-c3cncc(C(=O)N4C[C@@H](C)O[C@@H](C)C4)c3N3CC[C@](C)(N)C3)nc12` [2-28, (3S)-1-{3-[(2R,6S)-2,6-dimethylmorpholine-4-carbonyl]-5-(4-methyl-1H-1,3-benzodiazol-2-yl)pyridin-4-yl}-3-methylpyrrolidin-3-amine], for which the EC50 was in the range of 0.01 to 0.1 µM.

On to `Cc1ncc(C(=O)NCC2(O)CCCC2)c(N2CC[C@](C)(N)C2)c1-c1cc(F)cc(F)c1` [1-223, 4-[(3S)-3-amino-3-methylpyrrolidin-1-yl]-5-(3,5-difluorophenyl)-N-[(1-hydroxycyclopentyl)methyl]-6-methylpyridine-3-carboxamide], for which the EC50 is 0.01 to 0.1 µM.

`CC(CC(F)(F)F)NC(=O)c1cncc(-c2cc(F)cc(F)c2)c1N1CC[C@](C)(N)C1` (stereo partly drawn) [1-60, 4-[(3S)-3-amino-3-methylpyrrolidin-1-yl]-5-(3,5-difluorophenyl)-N-(4,4,4-trifluorobutan-2-yl)pyridine-3-carboxamide]: the EC50 was < 0.01 µM.

As for `N#Cc1ncc(C(=O)NC23CC(C2)C3)c(N2CC[C@H](N)C2)c1-c1cccc(Cl)c1` [1-84, 4-[(3S)-3-aminopyrrolidin-1-yl]-N-{bicyclo[1.1.1]pentan-1-yl}-5-(3-chlorophenyl)-6-cyanopyridine-3-carboxamide], the EC50 was < 0.01 µM.

As to `N#Cc1ncc(C(=O)NC23CC(C2)C3)c(N2CC[C@H](N)C2)c1-c1cccc(F)c1` [1-65, 4-[(3S)-3-aminopyrrolidin-1-yl]-N-{bicyclo[1.1.1]pentan-1-yl}-6-cyano-5-(3-fluorophenyl)pyridine-3-carboxamide], the EC50 is < 0.01 µM.

For the compound `N#Cc1ncc(C(=O)N2CCCCC2)c(N2CC[C@H](N)C2)c1-c1cc(F)cc(F)c1` [1-80, 4-[(3S)-3-aminopyrrolidin-1-yl]-3-(3,5-difluorophenyl)-5-(piperidine-1-carbonyl)pyridine-2-carbonitrile], the EC50 was in the range of 0.1 to 1 µM.

As to `Cn1ccnc1CNC(=O)c1cnc(C#N)c(-c2cc(F)cc(F)c2)c1N1CC[C@](C)(N)C1` [1-106, 4-[(3S)-3-amino-3-methylpyrrolidin-1-yl]-6-cyano-5-(3,5-difluorophenyl)-N-[(1-methyl-1H-imidazol-2-yl)methyl]pyridine-3-carboxamide], the EC50 is 0.01 to 0.1 µM.

For `CC(C)CNC(=O)c1cncc(-c2cc(F)cc(F)c2)c1N1CC[C@](C)(N)C1` [1-46, 4-[(3S)-3-amino-3-methylpyrrolidin-1-yl]-5-(3,5-difluorophenyl)-N-(2-methylpropyl)pyridine-3-carboxamide], the EC50 is < 0.01 µM.
